Values of other authors as cited in article PMC10572743 (International Journal of Molecular Sciences, 2023).

Tested on: TNF-α production in PBMC stimulated with LPS
Conditions: previous research; read-out: PMBC-LPS/TNFα; cited from earlier work

COc1ccc2ccc3nnn(CCCCO)c3c2c1 [B]
IC50: 7.9 µM

C=CCn1nnc2ccc3sccc3c21 [A]
IC50: 27.7 µM
